Experimental data as given in patent US20200069679A1, “NINTEDANIB FOR USE IN METHODS FOR THE TREATMENT OF INTERSTITIAL LUNG DISEASES BY COADMINISTRATION WITH OLADATEROL” (Boehringer Ingelheim International GmbH, priority 2016, published 2020).

Tested on: TGF-β induced ET-1 release in cultured human lung fibroblasts (IPF-HLF)
Experiment: TGF-β induced ET-1 release in cultured human lung fibroblasts from IPF patients (ELISA of supernatant)
Type: cell-based
Conditions: IPF-HLF stimulated with TGF-β for 48 h, n=6 incubations, normalized to unstimulated (=100% inhibition) and TGF-β-stimulated (=0% inhibition) ET-1 levels
Experimental: The principle of the assay is the incubation of IPF-HLF with transforming growth factor beta (TGF-β) for 48 h. In the cell culture supernatant the concentration of the pro-fibrotic mediator endothelin-1 (ET-1) was determined by enzyme linked immune sorbent assay.
HLFs from 5 different patients with idiopathic pulmonary fibrosis (IPF) were used to do repeated measurements. For the control groups without TGF-β stimulation, data sets from 11 incubations were included and for TGF-β-stimulated fibroblasts data sets from 12 incubations were included. For all olodaterol and/or nintedanib-treated groups, n=6 incubations were conducted. The experiments were conducted in the presence of nintedanib at 30 nM concentration and/or olodaterol at 1 pM (FIG. 1), 10 pM (FIG. 2) and 100 pM (FIG. 3) concentrations, respectively.

Row | SMILES | reduction of ET-1 release (nintedanib at 30 nM) [%] | reduction of ET-1 release (olodaterol at 1-100 pM)
1 | COC(=O)c1ccc2c(c1)NC(=O)/C2=C(\Nc1ccc(N(C)C(=O)CN2CCN(C)CC2)cc1)c1ccccc1 [nintedanib] | 7 | –
2 | COc1ccc(CC(C)(C)NC[C@H](O)c2cc(O)cc3c2OCC(=O)N3)cc1 [olodaterol] | – | 1%-47%
